US9458141B2, “Low molecular weight thyroid stimulating hormone receptor (TSHR) agonists” (The United States of America, as represented by the …, priority 2008, dated 2016)
Like-named read-outs stand apart in the source and are kept apart here. Values belong to the compound of their own block, whether it stands above or below them.

Molecular target: T1, human TSHR (Homo sapiens, UniProt P16473)
T1 construct: expressed in transfected cells
Experiment: Homogeneous Time Resolved Fluorescence (HTRF) cAMP assay, TSHR cell line
Type: cell-based
Conditions: for Maximum Activity compared to TSH: 100% activity = response of 30 mU/ml TSH, 0% = DMSO control, in %; for AC50: TSHR cell line, 30 minute incubation; for Emax: read-out: Maximum Activity compared to TSH, 100% activity = response of 30 mU/ml TSH, 0% = DMSO control
From the text: Generation of Stable Cell-Lines Expressing TSHR, LHCGR or FSHR.
cDNA for human TSHR was amplified by PCR from hTSHR-pSVL (1) and inserted into the pcDNA3.1(−)/hygromycin vector using restriction sites XhoI and BamHI. cDNA for human LHCGR was amplified by PCR from hLHR-pGS5 (2) and was inserted into the pcDNA3.1(+)/hygromycin vector using restriction sites BamHI and XhoI. The FSHR cDNA in pcDNA3.1 was obtained from the Missouri S&T cDNA Resource Center (www.cDNA.org) and was subcloned into the pcDNA3.1(−)/hygromycin vector. Constructs were confirmed by sequencing (MWG Biotech). HEK-EM 293 cells were transfected with the cDNA of TSHR, LHCGR or FSHR using FuGENE 6 Transfection reagent (Roche Diagnostics) according to the manufacturer's protocol. Two days after transfection cells were passaged and grown in Dulbecco's modified Eagle's Medium (DMEM) supplemented with 10% fetal bovine serum, 100 units/ml penicillin and 10 μg/ml streptomycin (Life Technologies Inc.) and with hygromycin (250 μg/ml) as a selection marker. After 7 to 10 days hygromycin-resistant clones were selected, and after a few days of further growth submitted for a cAMP assay to identify clones that stably express the appropriate receptor. Cell Culture. Cells stably expressing TSHR, LHCGR or FSHR and parental HEK 293 cells were maintained in DMEM medium containing 10% FBS, 100 units/ml Penicillin, 100 μg/ml Streptomycin, at 37° C. in 5% CO2. For the cells lines stably expressing TSHR, LHCGR or FSHR, additional 250 μg/ml Hygromycin was added during the cell culture. The cells were seeded at a density of 3 to 4 million cells in a T175 flask containing 35 ml of media and were allowed to grow for 3 days to reach 80-90% confluence. A flask of HEK 293 cells at this density generally yielded 30 million cells total. Homogeneous Time Resolved Fluorescence (HTRF) cAMP Assay. Compounds were assayed using a HTRF cAMP detection kit (Cisbio, Bedford, Mass.) on both TSHR cell line and parental cell line. Briefly, 750 cells were plated in 2.5 μl/well of complete media (DMEM containing 10% FCS) in 1536 well solid bottom white plates and 20 nl/well compound in DMSO solution or controls was added. Following 30 minute incubation at room temperature, 2.5 μl/well of labeled d2 cAMP and 2.5 μl/well of anti-cAMP antibody (both diluted 1:20 in lysis buffer) were added to each well using a flying reagent dispenser (Aurora Discovery, San Diego). Plates were measured using the Envision plate reader (PerkinElmer, Boston, Mass.) with excitation at 330 nm and emissions of 615 nm and 660 nm. Compound Preparation. […] Data Analysis. […] The EC50 values of compounds were calculated from the concentration-response curves by nonlinear regression analysis using Prism software (GraphPad Software, San Diego, Calif.). Confirmatory cAMP Assay and Test for Selectivity Towards TSHR 50,000 cells/well were plated in complete media (DMEM containing 10% FCS) in 96 well plates. […] Following aspiration of the medium after incubation with compounds, cells were lysed using lysis buffer of the cAMP-Screen Direct™ System (Applied Biosystems, Cat # CSD200). The cAMP content of the cell lysate was determined using the manufacturer's protocol. […] Below is a List of Compounds that were Assayed via the Homogeneous Time Resolved Fluorescence (HTRF) cAMP Assay.

T1 sequence (P16473 21-764): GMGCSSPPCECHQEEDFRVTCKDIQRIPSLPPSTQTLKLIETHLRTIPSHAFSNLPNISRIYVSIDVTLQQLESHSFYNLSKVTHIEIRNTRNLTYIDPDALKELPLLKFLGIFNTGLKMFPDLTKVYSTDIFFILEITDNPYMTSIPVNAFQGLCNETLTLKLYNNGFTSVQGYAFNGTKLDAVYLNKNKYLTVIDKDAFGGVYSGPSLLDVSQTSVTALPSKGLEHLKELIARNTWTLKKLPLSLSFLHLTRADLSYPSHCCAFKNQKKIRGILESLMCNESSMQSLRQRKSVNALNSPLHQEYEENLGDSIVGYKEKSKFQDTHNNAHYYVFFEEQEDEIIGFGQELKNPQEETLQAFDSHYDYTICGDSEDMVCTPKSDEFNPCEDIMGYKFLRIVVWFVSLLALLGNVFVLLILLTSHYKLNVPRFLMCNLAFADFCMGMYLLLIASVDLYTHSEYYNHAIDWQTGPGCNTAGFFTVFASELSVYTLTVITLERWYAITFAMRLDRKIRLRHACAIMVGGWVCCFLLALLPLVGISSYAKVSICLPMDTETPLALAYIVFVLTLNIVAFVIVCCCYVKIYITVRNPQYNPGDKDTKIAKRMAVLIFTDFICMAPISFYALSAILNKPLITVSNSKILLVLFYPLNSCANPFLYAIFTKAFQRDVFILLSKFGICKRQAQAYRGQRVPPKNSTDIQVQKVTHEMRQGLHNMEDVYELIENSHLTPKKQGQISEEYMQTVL

Maximum Activity compared to TSH: 159.24
AC50 (HTRF cAMP, read-out: AC50): 12.6 µM
Structure (SMILES): COc1ccc(C2Nc3ccccc3C(=O)N2Cc2ccco2)cc1COc1ccc(NC(C)=O)cc1 (stereo not drawn) [Structure 1]

Maximum Activity compared to TSH: 93.95
AC50 (HTRF cAMP, read-out: AC50): 4.47 µM
Structure (SMILES): COc1ccc(CN2C(=O)c3ccccc3NC2c2ccc(OC)c(COc3ccc(NC(C)=O)cc3)c2)cc1 (stereo not drawn) [Structure 3]

Maximum Activity compared to TSH: 180.81
AC50 (HTRF cAMP, read-out: AC50): 17.8 µM
Structure (SMILES): COc1ccc(C2Nc3ccccc3C(=O)N2Cc2ccco2)cc1COc1ccc(NC(C)=O)cc1 (stereo not drawn) [Structure 6]

Maximum Activity compared to TSH: 115.96
AC50 (HTRF cAMP, read-out: AC50): 14.1 µM
Structure (SMILES): COc1ccc(C2Nc3ccccc3C(=O)N2Cc2ccco2)cc1COc1ccc(NC(C)=O)cc1 (stereo not drawn) [Structure 8]

Maximum Activity compared to TSH: 115.62
AC50 (HTRF cAMP, read-out: AC50): 17.8 µM
Structure (SMILES): COc1ccc(C2Nc3ccccc3C(=O)N2Cc2ccco2)cc1COc1ccc(NC(C)=O)cc1 (stereo not drawn) [Structure 9]

Maximum Activity compared to TSH: 113.94
AC50 (HTRF cAMP, read-out: AC50): 3.16 µM
Structure (SMILES): COc1ccc(C2Nc3ccccc3C(=O)N2Cc2cccc(Cl)c2)cc1COc1ccc(NC(C)=O)cc1 (stereo not drawn) [Structure 11]

Maximum Activity compared to TSH: 91.43
AC50 (HTRF cAMP, read-out: AC50): 3.98 µM
Structure (SMILES): COc1ccc(C2Nc3ccccc3C(=O)N2Cc2cccc(Cl)c2)cc1COc1ccc(NC(C)=O)cc1 (stereo not drawn) [Structure 12]

Maximum Activity compared to TSH: 104.66
AC50 (HTRF cAMP, read-out: AC50): 11.2 µM
Structure (SMILES): COc1ccc(C2Nc3ccccc3C(=O)N2Cc2ccco2)cc1COc1ccc(NC(C)=O)cc1 (stereo not drawn) [Structure 14]

Maximum Activity compared to TSH: 97.95
AC50 (HTRF cAMP, read-out: AC50): 20 µM
Structure (SMILES): CCCCN1C(=O)c2ccccc2NC1c1ccc(OC)c(COc2ccc(NC(C)=O)cc2)c1 (stereo not drawn) [Structure 16]

Maximum Activity compared to TSH: 215.89
AC50 (HTRF cAMP, read-out: AC50): 6.31 µM
Structure (SMILES): COc1cccc(CN2C(=O)c3ccccc3NC2c2ccc(OC)c(COc3ccc(NC(C)=O)cc3)c2)c1 (stereo not drawn) [Structure 18]

Maximum Activity compared to TSH: 142.18
AC50 (HTRF cAMP, read-out: AC50): 15.8 µM
Structure (SMILES): COc1ccc(C2Nc3ccccc3C(=O)N2Cc2ccco2)cc1COc1ccc(NC(C)=O)cc1 (stereo not drawn) [Structure 19]

Maximum Activity compared to TSH: 156.28
AC50 (HTRF cAMP, read-out: AC50): 14.1 µM
Structure (SMILES): COc1ccc(C2Nc3ccccc3C(=O)N2Cc2ccco2)cc1COc1ccc(NC(C)=O)cc1 (stereo not drawn) [Structure 20]

Maximum Activity compared to TSH: 165.50
AC50 (HTRF cAMP, read-out: AC50): 15.8 µM
Structure (SMILES): COc1ccc(C2Nc3ccccc3C(=O)N2Cc2ccco2)cc1COc1ccc(NC(C)=O)cc1 (stereo not drawn) [Structure 23]

Maximum Activity compared to TSH: 123.52
AC50 (HTRF cAMP, read-out: AC50): 4.47 µM
Structure (SMILES): COc1ccc(C2Nc3ccccc3C(=O)N2Cc2cccc(C(F)(F)F)c2)cc1COc1ccc(NC(C)=O)cc1 (stereo not drawn) [Structure 27]

Maximum Activity compared to TSH: 405.10
AC50 (HTRF cAMP, read-out: AC50): 10 µM
Structure (SMILES): COc1ccc(C2Nc3cccc(O)c3C(=O)N2Cc2ccccc2)cc1COc1ccc(NC(C)=O)cc1 (stereo not drawn) [Structure 28]

AC50 (HTRF cAMP, read-out: AC50): 17.8 µM
Emax: 139%
Structure (SMILES): COc1ccc(C2Cc3ccccc3C(=O)N2Cc2ccco2)cc1COc1ccc(NC(C)=O)cc1 (stereo not drawn) [Structure 29]

Maximum Activity compared to TSH: 63.65
AC50 (HTRF cAMP, read-out: AC50): 3.16 µM
Structure (SMILES): COc1ccc(CN2C(=O)c3ccccc3NC2c2ccc(OC)c(COc3ccc(NC(C)=O)cc3)c2)cc1 (stereo not drawn) [Structure 30]

Maximum Activity compared to TSH: 137.62
AC50 (HTRF cAMP, read-out: AC50): 15.8 µM
Structure (SMILES): COc1ccc(C2Nc3ccc(NC(C)=O)cc3C(=O)N2Cc2ccccc2)cc1COc1ccc(NC(C)=O)cc1 (stereo not drawn) [Structure 32]

Second part, the compound before the results:

Structure (SMILES): COc1ccc(C2Nc3ccccc3C(=O)N2Cc2ccccc2)cc1COc1ccc(NC(C)=O)cc1 (single isomer, unassigned) [Structure 2]
Maximum Activity compared to TSH: 217.29
AC50 (AC50, HTRF cAMP): 11.2 µM

Structure (SMILES): COc1ccc(C2Nc3ccccc3C(=O)N2Cc2ccccc2)cc1COc1ccc(NC(C)=O)cc1 (single isomer, unassigned) [Structure 4]
Maximum Activity compared to TSH: 171.91
AC50 (AC50, HTRF cAMP): 7.08 µM

Structure (SMILES): COc1ccc(C2Nc3ccccc3C(=O)N2Cc2ccccc2)cc1COc1ccc(NC(C)=O)cc1 (single isomer, unassigned) [Structure 7]
Maximum Activity compared to TSH: 152.47
AC50 (AC50, HTRF cAMP): 8.91 µM

Structure (SMILES): COc1ccc(C2Nc3ccccc3C(=O)N2Cc2ccccc2)cc1COc1ccc(NC(C)=O)cc1 (single isomer, unassigned) [Structure 24]
Maximum Activity compared to TSH: 159.76
AC50 (AC50, HTRF cAMP): 7.08 µM

Structure (SMILES): COc1ccc(C2Nc3ccccc3C(=O)N2Cc2ccccc2)cc1COc1ccc(NC(C)=O)cc1 (single isomer, unassigned) [Structure 25]
Maximum Activity compared to TSH: 207.56
AC50 (AC50, HTRF cAMP): 8.91 µM

Structure (SMILES): COc1ccc(C2Nc3ccccc3C(=O)N2Cc2ccccc2)cc1COc1ccc(NC(C)=O)cc1 (single isomer, unassigned) [Structure 26]
Maximum Activity compared to TSH: 217.05
AC50 (AC50, HTRF cAMP): 10 µM

Structure (SMILES): COc1ccc(C2Nc3ccccc3C(=O)N2Cc2ccccc2)cc1COc1ccc(NC(C)=O)cc1 (single isomer, unassigned) [Structure 37]
Maximum Activity compared to TSH: 104.22
AC50 (AC50, HTRF cAMP): 8.91 µM

Structure (SMILES): COc1ccc(C2Nc3ccccc3C(=O)N2Cc2ccccc2)cc1COc1ccc(NC(C)=O)cc1 (single isomer, unassigned) [Structure 49]
Maximum Activity compared to TSH: 134.24
AC50 (AC50, HTRF cAMP): 3.55 µM

Structure (SMILES): COc1ccc(C2Nc3ccccc3C(=O)N2Cc2ccccc2)cc1COc1ccc(NC(C)=O)cc1 (single isomer, unassigned) [Structure 51]
Maximum Activity compared to TSH: 174.87
AC50 (AC50, HTRF cAMP): 15.8 µM

Structure (SMILES): COc1ccc(C2Nc3ccccc3C(=O)N2Cc2ccccc2)cc1COc1ccc(NC(C)=O)cc1 (single isomer, unassigned) [Structure 55]
Maximum Activity compared to TSH: 194.91
AC50 (AC50, HTRF cAMP): 7.94 µM

Structure (SMILES): COc1ccc(C2Nc3ccccc3C(=O)N2Cc2ccccc2)cc1COc1ccc(NC(C)=O)cc1 (single isomer, unassigned) [Structure 56]
Maximum Activity compared to TSH: 110.90
AC50 (AC50, HTRF cAMP): 11.2 µM

Structure (SMILES): COc1ccc(C2Nc3ccccc3C(=O)N2Cc2ccccc2)cc1COc1ccc(NC(C)=O)cc1 (single isomer, unassigned) [Structure 62]
Maximum Activity compared to TSH: 241.92
AC50 (AC50, HTRF cAMP): 7.08 µM

Structure (SMILES): COc1ccc(C2Nc3ccccc3C(=O)N2Cc2ccccc2)cc1COc1ccc(NC(C)=O)cc1 (single isomer, unassigned) [Structure 63]
Maximum Activity compared to TSH: 166.46
AC50 (AC50, HTRF cAMP): 5.01 µM

Structure (SMILES): COc1ccc(CN(Cc2ccccc2)C(=O)c2ccccc2)cc1COc1ccc(NC(C)=O)cc1 [Structure 5]
Maximum Activity compared to TSH: 174.77
AC50 (HTRF cAMP, read-out: AC50): 15.8 µM

Structure (SMILES): COc1ccc(C2Nc3ccc(NC(C)=O)cc3C(=O)N2Cc2cccc(Cl)c2)cc1COc1ccc(NC(C)=O)cc1 (stereo not drawn) [Structure 10]
AC50 (HTRF cAMP, read-out: AC50): 7.94 µM
Emax: 122%

Structure (SMILES): COc1ccc(C2Nc3ccccc3C(=O)N2Cc2cccc(-c3ccccc3)c2)cc1COc1ccc(NC(C)=O)cc1 (stereo not drawn) [Structure 13]
Maximum Activity compared to TSH: 103.29
AC50 (HTRF cAMP, read-out: AC50): 2.24 µM

Structure (SMILES): COc1ccc(C(=O)N(Cc2ccccc2)Cc2ccc(OC)c(COc3ccc(NC(C)=O)cc3)c2)cc1 [Structure 15]
AC50 (HTRF cAMP, read-out: AC50): 12.6 µM
Emax: 123%

Structure (SMILES): COc1ccc(-c2nc3ccccc3c(=O)n2Cc2ccccc2)cc1COc1ccc(NC(C)=O)cc1 [Structure 17]
Maximum Activity compared to TSH: 93.46
AC50 (HTRF cAMP, read-out: AC50): 10 µM

Structure (SMILES): COc1ccc(CN(Cc2ccccc2)C(=O)c2ccccc2N)cc1COc1ccc(NC(C)=O)cc1 [Structure 21]
Maximum Activity compared to TSH: 236.35
AC50 (HTRF cAMP, read-out: AC50): 25.1 µM

Structure (SMILES): COc1ccc(C2Nc3ccccc3C(=O)N2Cc2ccccc2)cc1CSc1ccc(NC(C)=O)cc1 (stereo not drawn) [Structure 22]
Maximum Activity compared to TSH: 463.89
AC50 (HTRF cAMP, read-out: AC50): 7.94 µM

Structure (SMILES): COc1ccc(CN(Cc2ccccc2)C(=O)c2ccccc2)cc1COc1ccc(NC(C)=O)cc1 [Structure 31]
Maximum Activity compared to TSH: 153.40
AC50 (HTRF cAMP, read-out: AC50): 11.2 µM
